# Laboratory results as given in patent US9663473B2 (Actelion Pharmaceuticals Ltd, priority 2013, dated 2017).
# Molecular target: T1, recombinant human ALX receptor (Homo sapiens, UniProt P25090)
# T1 construct: expressed in transfected cells; host or cells: HEK293 (HEK293-hALXR-Gα16)
# T1 sequence (P25090 1-351): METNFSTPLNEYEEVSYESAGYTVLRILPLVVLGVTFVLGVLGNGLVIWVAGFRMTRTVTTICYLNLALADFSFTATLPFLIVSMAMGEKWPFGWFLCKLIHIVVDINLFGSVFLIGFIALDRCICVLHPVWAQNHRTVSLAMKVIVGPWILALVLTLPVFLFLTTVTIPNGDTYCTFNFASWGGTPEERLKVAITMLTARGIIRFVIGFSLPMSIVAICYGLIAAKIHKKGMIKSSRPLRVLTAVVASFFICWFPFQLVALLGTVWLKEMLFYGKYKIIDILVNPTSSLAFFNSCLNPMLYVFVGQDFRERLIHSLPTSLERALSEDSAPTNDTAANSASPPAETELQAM
# Experiment: Intracellular calcium measurements (FLIPR), ALX receptor agonistic activity
# Format: cell-based
# Details: HEK293-hALXR-Gα16 cells, Fluo-4 calcium signal, normalized to WKYMVm 10 nM
# How it was run: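 HEK293 cells co-expressing human ALX receptor and Gα16 were loaded with 1 μM Fluo-4 AM for 60 min at 37° C., then exposed to serially diluted compounds on FLIPR Tetra. Peak fluorescence above baseline (ex 488/em 540 nm) was normalized to 10 nM WKYMVm as high control.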
row,Compound,EC50
1,"COc1ccc(C[C@H](NC(=O)NC2CC(C)(C)NC(C)(C)C2)c2nc3ccccc3[nH]2)cc1 [Example 397, (S)-1-(1-(1H-benzo[d]imidazol-2-yl)-2-(4-methoxyphenyl)ethyl)-3-(2,2,6,6-tetramethylpiperidin-4-yl)urea]",808 nM
2,"COc1ccc(CC(NC(=O)Nc2cc(C)on2)c2nc3ccccc3[nH]2)cc1 (stereo not shown) [Example 401, 1-(1-(1H-Benzo[d]imidazol-2-yl)-2-(4-methoxyphenyl)ethyl)-3-(5-methylisoxazol-3-yl)urea]",372 nM
3,"COc1ccc(CC(NC(=O)Nc2ncc(C)s2)c2nc3ccccc3[nH]2)cc1 (stereo not shown) [Example 402, 1-(1-(1H-Benzo[d]imidazol-2-yl)-2-(4-methoxyphenyl)ethyl)-3-(5-methylthiazol-2-yl)urea]",784 nM
4,"COc1ccc(CC(NC(=O)Nc2cc(-c3ccc(Cl)cc3)nn2C)c2nc3ccccc3[nH]2)cc1 (stereo not shown) [Example 403, 1-(1-(1H-Benzo[d]imidazol-2-yl)-2-(4-methoxyphenyl)ethyl)-3-(3-(4-chlorophenyl)-1-methyl-1H-pyrazol-5-yl)urea]",118 nM
5,"COc1ccc(CC(NC(=O)Nc2cc(-c3ccc(OC)cc3)n[nH]2)c2nc3ccccc3[nH]2)cc1 (stereo not shown) [Example 404, 1-(1-(1H-benzo[d]imidazol-2-yl)-2-(4-methoxyphenyl)ethyl)-3-(3-(4-methoxyphenyl)-1H-pyrazol-5-yl)urea]",158 nM
6,"COc1ccc(CC(NC(=O)Nc2cc(C3CC3)nn2-c2ccccc2)c2nc3ccccc3[nH]2)cc1 (stereo not shown) [Example 405, 1-(1-(1H-benzo[d]imidazol-2-yl)-2-(4-methoxyphenyl)ethyl)-3-(3-cyclopropyl-1-phenyl-1H-pyrazol-5-yl)urea]",32 nM
7,"COc1ccc(CC(NC(=O)Nc2ccnn2-c2ccc(OC)cc2)c2nc3ccccc3[nH]2)cc1 (stereo not shown) [Example 406, 1-(1-(1H-benzo[d]imidazol-2-yl)-2-(4-methoxyphenyl)ethyl)-3-(1-(4-methoxyphenyl)-1H-pyrazol-5-yl)urea]",182 nM
8,"COc1ccc(CC(NC(=O)Nc2ccnn2-c2ccc(C(C)C)cc2)c2nc3ccccc3[nH]2)cc1 (stereo not shown) [Example 407, 1-(1-(1H-benzo[d]imidazol-2-yl)-2-(4-methoxyphenyl)ethyl)-3-(1-(4-isopropylphenyl)-1H-pyrazol-5-yl)urea]",156 nM
9,"COc1ccc(CC(NC(=O)Nc2cc(C)nn2-c2ccccc2)c2nc3ccccc3[nH]2)cc1 (stereo not shown) [Example 408, 1-(1-(1H-benzo[d]imidazol-2-yl)-2-(4-methoxyphenyl)ethyl)-3-(3-methyl-1-phenyl-1H-pyrazol-5-yl)urea]",20 nM
10,"COc1ccc(CC(NC(=O)Nc2ccnn2-c2ccncc2)c2nc3ccccc3[nH]2)cc1 (stereo not shown) [Example 409, 1-(1-(1H-benzo[d]imidazol-2-yl)-2-(4-methoxyphenyl)ethyl)-3-(1-(pyridin-4-yl)-1H-pyrazol-5-yl)urea]",362 nM
11,"COc1ccc(CC(NC(=O)Nc2ccnn2-c2ccc(F)cc2)c2nc3ccccc3[nH]2)cc1 (stereo not shown) [Example 410, 1-(1-(1H-benzo[d]imidazol-2-yl)-2-(4-methoxyphenyl)ethyl)-3-(1-(4-fluorophenyl)-1H-pyrazol-5-yl)urea]",45 nM
12,"COc1ccc(CC(NC(=O)Nc2ccnn2-c2ccccn2)c2nc3ccccc3[nH]2)cc1 (stereo not shown) [Example 411, 1-(1-(1H-benzo[d]imidazol-2-yl)-2-(4-methoxyphenyl)ethyl)-3-(1-(pyridin-2-yl)-1H-pyrazol-5-yl)urea]",56 nM
13,"COc1ccc(CC(NC(=O)Nc2ccnn2-c2ccccc2)c2nc3ccccc3[nH]2)cc1 (stereo not shown) [Example 412, 1-(1-(1H-benzo[d]imidazol-2-yl)-2-(4-methoxyphenyl)ethyl)-3-(1-phenyl-1H-pyrazol-5-yl)urea]",157 nM
14,"COc1ccc(CC(NC(=O)Nc2ccnn2-c2ccc(OC(F)(F)F)cc2)c2nc3ccccc3[nH]2)cc1 (stereo not shown) [Example 413, 1-(1-(1H-benzo[d]imidazol-2-yl)-2-(4-methoxyphenyl)ethyl)-3-(1-(4-(trifluoromethoxy)phenyl)-1H-pyrazol-5-yl)urea]",153 nM
15,"COc1ccc(CC(NC(=O)Nc2ccnn2C(C)(C)C)c2nc3ccccc3[nH]2)cc1 (stereo not shown) [Example 414, 1-(1-(1H-benzo[d]imidazol-2-yl)-2-(4-methoxyphenyl)ethyl)-3-(1-(tert-butyl)-1H-pyrazol-5-yl)urea]",30 nM
16,"COc1ccc(CC(NC(=O)Nc2ccnn2Cc2ccccc2)c2nc3ccccc3[nH]2)cc1 (stereo not shown) [Example 415, 1-(1-(1H-benzo[d]imidazol-2-yl)-2-(4-methoxyphenyl)ethyl)-3-(1-benzyl-1H-pyrazol-5-yl)urea]",101 nM
17,"COc1ccc(CC(NC(=O)Nc2cc(C)nn2C)c2nc3ccccc3[nH]2)cc1 (stereo not shown) [Example 416, 1-(1-(1H-benzo[d]imidazol-2-yl)-2-(4-methoxyphenyl)ethyl)-3-(1,3-dimethyl-1H-pyrazol-5-yl)urea]",89 nM
18,"CCn1nccc1NC(=O)NC(Cc1ccc(OC)cc1)c1nc2ccccc2[nH]1 (stereo not shown) [Example 417, 1-(1-(1H-benzo[d]imidazol-2-yl)-2-(4-methoxyphenyl)ethyl)-3-(1-ethyl-1H-pyrazol-5-yl)urea]",61 nM
19,"COc1ccc(CC(NC(=O)Nc2ccnn2C)c2nc3ccccc3[nH]2)cc1 (stereo not shown) [Example 418, 1-(1-(1H-benzo[d]imidazol-2-yl)-2-(4-methoxyphenyl)ethyl)-3-(1-methyl-1H-pyrazol-5-yl)urea]",210 nM
20,"COc1ccc(CC(NC(=O)Nc2ccnn2-c2cccc(OC)c2)c2nc3ccccc3[nH]2)cc1 (stereo not shown) [Example 419, 1-(1-(1H-benzo[d]imidazol-2-yl)-2-(4-methoxyphenyl)ethyl)-3-(1-(3-methoxyphenyl)-1H-pyrazol-5-yl)urea]",56 nM
21,"COc1ccc(CC(NC(=O)Nc2ccnn2-c2ccc(C)cc2)c2nc3ccccc3[nH]2)cc1 (stereo not shown) [Example 420, 1-(1-(1H-benzo[d]imidazol-2-yl)-2-(4-methoxyphenyl)ethyl)-3-(1-(p-tolyl)-1H-pyrazol-5-yl)urea]",207 nM
22,"COc1ccc(CC(NC(=O)Nc2ccnn2-c2ccccc2OC)c2nc3ccccc3[nH]2)cc1 (stereo not shown) [Example 421, 1-(1-(1H-benzo[d]imidazol-2-yl)-2-(4-methoxyphenyl)ethyl)-3-(1-(2-methoxyphenyl)-1H-pyrazol-5-yl)urea]",46 nM
23,"COc1ccc(CC(C)(NC(=O)Nc2cc(C3CC3)nn2C)c2nc3ccccc3[nH]2)cc1 (stereo not shown) [Example 422, 1-(2-(1H-benzo[d]imidazol-2-yl)-1-(4-methoxyphenyl)propan-2-yl)-3-(3-cyclopropyl-1-methyl-1H-pyrazol-5-yl)urea]",720 nM
24,"COc1ccc(C[C@@H](NC(=O)NCc2nc(C(C)(F)F)co2)c2nc3ccccc3[nH]2)cc1 [Example 423, (R)-1-(1-(1H-benzo[d]imidazol-2-yl)-2-(4-methoxyphenyl)ethyl)-3-((4-(1,1-difluoroethyl)oxazol-2-yl)methyl)urea]",565 nM
25,(R)-tert-Butyl 4-((3-(1-(1H-benzo[d]imidazol-2-yl)-2-(4-methoxyphenyl)ethyl)ureido)methyl)piperidine-1-carboxylate [Example 106],538 nM
26,(R)—N-(1-(1H-Benzo[d]imidazol-2-yl)-2-(4-methoxyphenyl)ethyl)-4-acetylpiperazine-1-carboxamide [Example 135],333 nM

# Tested on: dry corneal surface
# Experiment: not given
# Details: topical treatment; cited from earlier work
row,Compound,re-epithelization and inflammation of the dry corneal surface
1,"CCCCC[C@H](O)/C=C/C=C\C=C\C=C\[C@@H](O)[C@@H](O)CCCC(=O)O [Lipoxin A4, lipoxin A4]",increases re-epithelization and decreases inflammation of the dry corneal surface

# Molecular target: T2, ALXR (Homo sapiens, UniProt P25090)
# T2 sequence (P25090 1-351): T1 sequence (P25090 1-351)
# Experiment: not given
# Details: cited from earlier work
row,Compound,binding to ALXR
1,"CCCCC[C@H](O)/C=C/C=C\C=C\C=C\[C@@H](O)[C@@H](O)CCCC(=O)O [Lipoxin A4, lipoxin A4]",high affinity

# Tested on: collagen-induced arthritis
# Experiment: not given
# Details: in vivo; cited from earlier work
row,Compound,severity of collagen-induced arthritis
1,COC(=O)CCC[C@H](O)[C@H](O)CO [BML-111],reduced the severity of collagen-induced arthritis

# Tested on: models of Alzheimer's Disease
# Experiment: not given
# Details: cited from earlier work
row,Compound,neuroprotection
1,"humanin: high-affinity ligand for FPR2, neuroprotective in models of Alzheimer's Disease (MAPRGFSCLLLLTSEIDLPVKRRA; Humanin; UniProt Q8IVG9 1-24, looked up)",neuroprotective

# Tested on: human fibroblast-like synoviocytes
# Experiment: not given
# Details: cited from earlier work
row,Compound,IL-6 expression
1,"CCCCC[C@H](O)/C=C/C=C\C=C\C=C\[C@@H](O)[C@@H](O)CCCC(=O)O [Lipoxin A4, lipoxin A4]",inhibited IL-6 expression
